{"source": "patent US20190183908A1", "about": "(priority 2016, published 2019)", "key": {"[1]": {"test_system": "UVR-irradiated skin of healthy adults", "format": "in vivo, human", "conditions": "N=4"}, "[2]": {"test_system": "UVR-irradiated skin of healthy adults", "design": "species or system human", "conditions": "in vivo"}, "TNF-α [3]": {"test_system": "TNF-α", "design": "species or system human", "conditions": "in vivo, po"}, "iNOS [4]": {"test_system": "iNOS", "design": "species or system human", "conditions": "in vivo, po"}, "[5]": {"test_system": "UVR-irradiated skin of healthy adults", "design": "species or system human", "conditions": "in vivo", "remark": "listed apart in the source"}, "arginase-1": {"test_system": "arginase-1", "design": "species or system human", "conditions": "in vivo"}, "[6]": {"test_system": "LC3 in CD163+ macrophages", "design": "species or system human", "conditions": "in vivo, po"}, "Valchlor-exposed skin [7]": {"test_system": "Valchlor-exposed skin", "format": "in vivo, human"}, "TNF-α [8]": {"test_system": "TNF-α", "design": "species or system human", "conditions": "in vivo, po", "remark": "listed apart in the source"}, "IL-6": {"test_system": "IL-6", "design": "species or system human", "conditions": "in vivo, po"}, "COX-2": {"test_system": "COX-2", "design": "species or system human", "conditions": "in vivo, po"}, "Valchlor-exposed skin [9]": {"test_system": "Valchlor-exposed skin", "design": "species or system human", "conditions": "in vivo"}, "Valchlor-exposed skin [10]": {"test_system": "Valchlor-exposed skin", "conditions": "human, in vivo"}, "UV irradiated mice": {"test_system": "UV irradiated mice", "design": "species or system C57BL/6 mice", "conditions": "mouse, in vivo"}, "iNOS [11]": {"test_system": "iNOS", "design": "species or system mice", "conditions": "mouse, in vivo"}, "TNF-α [12]": {"test_system": "TNF-α", "design": "species or system mice", "conditions": "mouse, in vivo"}, "MMP9": {"test_system": "MMP9", "design": "species or system mice", "conditions": "mouse, in vivo"}, "[13]": {"test_system": "LC3 in F4/80+ macrophages", "design": "species or system mice", "conditions": "mouse, in vivo"}, "CD206+ M2 macrophages": {"test_system": "CD206+ M2 macrophages", "design": "species or system mice", "conditions": "mouse, in vivo"}, "[14]": {"test_system": "LC3 in CD206+ macrophages", "design": "species or system mice", "conditions": "mouse, in vivo"}, "Arginase1": {"test_system": "Arginase1", "design": "species or system mice", "conditions": "mouse, in vivo"}, "M2:M1 macrophage ratio": {"test_system": "M2:M1 macrophage ratio", "design": "species or system mice", "conditions": "mouse, in vivo"}, "UV induced apoptosis": {"test_system": "UV induced apoptosis", "conditions": "mouse, in vivo"}, "[15]": {"test_system": "nitrogen mustard exposed mice", "conditions": "mouse, in vivo, ip; cited from earlier work"}}, "note": "Entries after “also recorded” stand apart in the source; their conditions may differ."}
{"compound": "C=C1CC[C@H](O)C/C1=C/C=C1\\CCC[C@]2(C)[C@@H]([C@H](C)CCCC(C)C)CC[C@@H]12", "note": "[vitamin D3, cholecalciferol]", "values": [{"measurement": "Erythema Δa*24 hr, Mean (95% CI)", "setting": "[1]", "value": "2.0 (−2.1.6.1)"}, {"measurement": "Skin thickness after irradiation with higher doses", "setting": "[2]", "value": "trend for decreased skin thickness"}, {"measurement": "Skin expression of TNF-α compared to placebo", "setting": "TNF-α [3]", "value": "reduced expression; also recorded: lower"}, {"measurement": "Skin expression of iNOS compared to placebo", "setting": "iNOS [4]", "value": "reduced expression; also recorded: lower"}, {"measurement": "Histologic structural damage (epidermal vesiculation, edema formation)", "setting": "[5]", "value": "improved"}, {"measurement": "Arginase-1 protein expression localized to CD163+ macrophages", "setting": "arginase-1", "value": "increased expression"}, {"measurement": "LC3 co-localized with CD163+ macrophages in human skin", "setting": "[6]", "value": "upregulates cells that co-localize LC and CD163; also recorded: enhanced LC3"}, {"measurement": "Reduction in skin vesication on histology", "setting": "Valchlor-exposed skin [7]; in vivo, po", "value": 50, "unit": "%"}, {"measurement": "Vesication by histology", "setting": "Valchlor-exposed skin [7]; n=2", "value": 0, "unit": "%"}, {"measurement": "Reduction in TNF-α", "setting": "TNF-α [8]", "value": 66, "unit": "%"}, {"measurement": "Reduction in IL-6", "setting": "IL-6", "value": 112, "unit": "%"}, {"measurement": "Reduction in COX-2", "setting": "COX-2", "value": 80, "unit": "%"}, {"measurement": "Skin thickness (arm 2 − arm 1) compared to placebo", "setting": "Valchlor-exposed skin [9]", "value": "trend in decreasing thickness; also recorded: reduction in skin thickness"}, {"measurement": "Net skin symptom Irritation, Day 0", "setting": "Valchlor-exposed skin [10]", "value": 1.0}, {"measurement": "Net skin symptom Irritation, Day 1", "setting": "Valchlor-exposed skin [10]", "value": 0.5}, {"measurement": "Net skin symptom Irritation, Day 2", "setting": "Valchlor-exposed skin [10]", "value": 1.1}, {"measurement": "Net skin symptom Irritation, Day 3", "setting": "Valchlor-exposed skin [10]", "value": 0.8}, {"measurement": "Net skin symptom Irritation, Day 4", "setting": "Valchlor-exposed skin [10]", "value": 0.5}, {"measurement": "Net skin symptom Irritation, Day 5", "setting": "Valchlor-exposed skin [10]", "value": 0.1}, {"measurement": "Net skin symptom Irritation, Day 6", "setting": "Valchlor-exposed skin [10]", "value": "−0.2"}, {"measurement": "Net skin symptom Irritation, Slope", "setting": "Valchlor-exposed skin [10]", "value": "−0.1202 ± 0.05"}, {"measurement": "Net skin symptom Warmth, Day 0", "setting": "Valchlor-exposed skin [10]", "value": 1.0}, {"measurement": "Net skin symptom Warmth, Day 1", "setting": "Valchlor-exposed skin [10]", "value": 0.5}, {"measurement": "Net skin symptom Warmth, Day 2", "setting": "Valchlor-exposed skin [10]", "value": "−0.2"}, {"measurement": "Net skin symptom Warmth, Day 3", "setting": "Valchlor-exposed skin [10]", "value": 0.0}, {"measurement": "Net skin symptom Warmth, Day 4", "setting": "Valchlor-exposed skin [10]", "value": "−1.0"}, {"measurement": "Net skin symptom Warmth, Day 5", "setting": "Valchlor-exposed skin [10]", "value": 0.3}, {"measurement": "Net skin symptom Warmth, Day 6", "setting": "Valchlor-exposed skin [10]", "value": "−0.3"}, {"measurement": "Net skin symptom Warmth, Slope", "setting": "Valchlor-exposed skin [10]", "value": "−0.1296 + 0.083"}, {"measurement": "Patient reported skin symptoms (warmth, irritation)", "setting": "Valchlor-exposed skin [10]", "value": "demonstrable reduction; also recorded: decreased"}, {"measurement": "Skin pain, burning sensation, and itch", "setting": "Valchlor-exposed skin [10]", "value": "no observable difference"}]}
{"compound": "25(OH)D", "values": [{"measurement": "Skin inflammation, wound progression and histological architecture", "setting": "UV irradiated mice; ip", "value": "prevented excessive cutaneous damage; also recorded: delayed skin inflammation, arrested skin wound progression and accelerated wound repair; also recorded: protects from UV induced necrosis, dyskeratosis and vacuolation of the basal layer"}, {"measurement": "Gene expression of iNOS (NOS2)", "setting": "iNOS [11]", "value": "significantly suppressed; also recorded: suppresses"}, {"measurement": "Gene expression of TNF (TNF-α)", "setting": "TNF-α [12]", "value": "sustained inhibition; also recorded: significantly suppressed; also recorded: suppresses"}, {"measurement": "Gene expression of MMP9", "setting": "MMP9", "value": "sustained inhibition; also recorded: significantly suppressed; also recorded: suppresses"}, {"measurement": "Elevation of macrophage-specific autophagy (LC3 punctae) compared to UV induced autophagy", "setting": "[13]", "value": 5, "unit": "fold"}, {"measurement": "M2 macrophages (CD206+) relative to M1", "setting": "CD206+ M2 macrophages", "value": "more M2 cells co-localizing with LC3; also recorded: expands the M2 compared to M1"}, {"measurement": "LC3+CD206+ cells in the dermis", "setting": "[14]", "value": "significantly increased number of cells"}, {"measurement": "arg1 staining in CD206+ cells", "setting": "Arginase1", "value": "selectively stain for arg1 in CD206+ cells"}, {"measurement": "M2:M1 ratio", "setting": "M2:M1 macrophage ratio", "value": "significantly altered"}, {"measurement": "M2:M1 ratio in presence or absence of VD", "setting": "M2:M1 macrophage ratio", "value": "comparable"}, {"measurement": "UV mediated apoptotic cell death (TUNEL+ cells)", "setting": "UV induced apoptosis", "value": "significantly diminished"}, {"measurement": "Acute skin and systemic inflammation, tissue damage and mortality", "setting": "[15]", "value": "sufficient to prevent acute skin and systemic inflammation and rescue mice from extensive tissue damage and mortality"}]}
{"compound": "Cn1cnc(N)c2ncnc1-2", "note": "[3-MA, 3-methyladenine]", "values": [{"measurement": "UV-induced inflammation / VD mediated protection under blockade of autophagy", "setting": "UV irradiated mice", "value": "exacerbated UV-induced inflammation; also recorded: reversed VD mediated protection from inflammation"}, {"measurement": "TNF-α under blockade of autophagy", "setting": "TNF-α [12]", "value": "increasing"}, {"measurement": "MMP9 under blockade of autophagy", "setting": "MMP9", "value": "increasing"}, {"measurement": "UV induced and VD induced autophagy", "setting": "[13]", "value": "inhibited"}, {"measurement": "M2 macrophages / cellular profile under blockade of autophagy", "setting": "CD206+ M2 macrophages", "value": "depleted functional M2 macrophages; also recorded: recapitulates cellular profile observed with UV while quenching LC3 expression"}, {"measurement": "LC3 expression in skin under inhibition of autophagy", "setting": "[14]", "value": "abolished LC3 expression"}, {"measurement": "arg1 expression in CD206+ cells under inhibition of autophagy", "setting": "Arginase1", "value": "diminished arg1 expression"}]}
